What was measured:
[1] = Release of 40-O-(2-hydroxy)ethyl-rapamycin from a standard polymeric coating in release media; format: physicochemical; details: in about 24 hours, certain release media
[2] = Drug release from stent coatings, Vankel Bio-Dis release rate tester, HPLC; format: physicochemical; details: fluid-treated coating, Example 3
Protocol: The drug-coated stents were placed on stent holders of a Vankel Bio-Dis release rate tester (Vankel, Inc., Cary, N.C.). 3 stents from each test group were dipped into an artificial medium for about 1 hour to extract the 40-O-(2-hydroxy)ethyl-rapamycin from the stent coatings. The artificial medium included phosphate buffer saline solution (10 mM, pH 7.4) and 1% TRITON X-100 Sigma Corporation) which stabilizes the 40-O-(2-hydroxy)ethyl-rapamycin in the testing solution. Each stent was tested in a separate testing solution to prevent cross-contamination. After extraction, each of the solutions was separately analyzed for the amount of drug released from the stent coatings by high pressure liquid chromatography (HPLC). The HPLC system consisted of a Waters 2690 system. After the drug solutions were analyzed by HPLC, the results were quantified by comparing the release rate results with a reference standard.
Each of the stents was then dipped in fresh extraction solutions for another 6 hours (7 hours total). The solutions were analyzed by HPLC as described above. […] The solutions were again analyzed by HPLC as described above.
The drug release profile could then be generated by plotting cumulative drug released in the medium vs. time. The percentage of drug released at a specific time was determined by comparing the cumulative drug released with the total content data. […]

## CO[C@H]1C[C@@H]2CC[C@@H](C)[C@@](O)(O2)C(=O)C(=O)N2CCCC[C@H]2C(=O)O[C@H]([C@H](C)C[C@@H]2CC[C@@H](OCCO)[C@H](OC)C2)CC(=O)[C@H](C)/C=C(\C)[C@@H](O)[C@@H](OC)C(=O)[C@H](C)C[C@H](C)/C=C/C=C/C=C/1C [40-O-(2-hydroxy)ethyl-rapamycin]
[1]
  release rate from a standard polymeric coating: greater than 50%
[2]
  decrease of release rate as compared to a control group: about 50%

Reference: patent US7989018B2, “Fluid treatment of a polymeric coating on an implantable medical device” (Advanced Cardiovascular Systems, Inc., priority 2001, dated 2011)
